Laboratory results: ChEMBL document CHEMBL6109050, “Synthesis of novel pyrrolobenzodiazepine (PBD) C1-substituted monomers and dimers with DNA-binding activity and cytotoxicity” (Bioorg Med Chem Lett, 2025)

Test system: MDA-MB-231
Assay: Cytotoxicity against human MDA-MB-231 cells incubated for 72 hrs by MTT assay
Type: functional, cell-based
Conditions: MDA-MB-231, 72 h

Molecule `COc1cc2c(cc1OC)C(=O)N1CC[C@H](OCCCO[C@H]3CCN4C(=O)c5cc(OC)c(OC)cc5N=C[C@H]34)[C@H]1C=N2` has an IC50 of 236 nM.
Work on `COC(=O)c1cc(-c2ccc(NC(=O)c3nc(NC(=O)CO[C@H]4CCN5C(=O)c6cc(OC)c(OC)cc6N=C[C@H]45)cn3C)cc2)cn1C` yielded an IC50 of 36 nM.
